# Results from publication PMC5658359, “A potent small-molecule inhibitor of the DCN1-UBC12 interaction that selectively blocks cullin 3 neddylation” (Nature Communications, 2017).
# Values joined by “and” are separate entries in the source; they are usually repeats but may differ in a detail not shown here. Equal values may be shown once. Read-outs that look alike come from different tables or passages of the source. Where a SMILES comes first, the peptide text is derived from it. [ ]: non-standard residue; d: D form. Ala(6-iPr-benzothiazol-2-yl) = CC(C)c1ccc2nc(C[C@H](N)C(=O)O)sc2c1; Ala(benzothiazol-2-yl) = N[C@@H](Cc1nc2ccccc2s1)C(=O)O; Phe(3-CF3) = N[C@@H](Cc1cccc(C(F)(F)F)c1)C(=O)O; Phe(3,5-F2) = N[C@@H](Cc1cc(F)cc(F)c1)C(=O)O; Phe(3-CN) = N#Cc1cccc(C[C@H](N)C(=O)O)c1; 2Nal = N[C@@H](Cc1ccc2ccccc2c1)C(=O)O; hPhe = N[C@@H](CCc1ccccc1)C(=O)O
# Legend:
# DCN3 = biological target: T1, DCN3 (Homo sapiens, UniProt Q8IWE4); assay: Label-free BLI assay, DCN3; format: binding; conditions: concentrations up to 10 µM
# T1 construct: DCN2 (residues 62–259), DCN3 (residues 86–304), DCN4 (residues 102–292) and DCN5 (residues 47–237); His6-TEV (N, cleaved yes); made in house; host or cells: Rosetta2 cells (E. coli)
# T1 sequence (Q8IWE4 86-304): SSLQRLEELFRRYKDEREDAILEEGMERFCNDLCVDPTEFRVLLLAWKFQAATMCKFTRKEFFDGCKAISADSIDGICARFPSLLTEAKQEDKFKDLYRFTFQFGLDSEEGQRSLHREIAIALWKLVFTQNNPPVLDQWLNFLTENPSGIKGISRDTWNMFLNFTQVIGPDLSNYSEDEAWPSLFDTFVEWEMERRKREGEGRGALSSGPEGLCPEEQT
# DCN4 = biological target: T2, DCN4 (Homo sapiens, UniProt Q92564); assay: Label-free BLI assay, DCN4; format: binding; conditions: concentrations up to 10 µM
# T2 construct: DCN2 (residues 62–259), DCN3 (residues 86–304), DCN4 (residues 102–292) and DCN5 (residues 47–237); His6-TEV (N, cleaved yes); made in house; host or cells: Rosetta2 cells (E. coli)
# T2 sequence (Q92564 102-292): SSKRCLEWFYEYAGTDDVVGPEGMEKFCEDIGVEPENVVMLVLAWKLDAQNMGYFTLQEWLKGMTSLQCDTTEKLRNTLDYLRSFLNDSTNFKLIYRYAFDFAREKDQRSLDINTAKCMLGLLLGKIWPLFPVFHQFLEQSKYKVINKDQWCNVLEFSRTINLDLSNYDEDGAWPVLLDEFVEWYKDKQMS
# DCN5 = biological target: T3, DCN5 (Homo sapiens, UniProt Q9BTE7); assay: Label-free BLI assay, DCN5; format: binding; conditions: concentrations up to 10 µM
# T3 construct: DCN2 (residues 62–259), DCN3 (residues 86–304), DCN4 (residues 102–292) and DCN5 (residues 47–237); His6-TEV (N, cleaved yes); made in house; host or cells: Rosetta2 cells (E. coli)
# T3 sequence (Q9BTE7 47-237): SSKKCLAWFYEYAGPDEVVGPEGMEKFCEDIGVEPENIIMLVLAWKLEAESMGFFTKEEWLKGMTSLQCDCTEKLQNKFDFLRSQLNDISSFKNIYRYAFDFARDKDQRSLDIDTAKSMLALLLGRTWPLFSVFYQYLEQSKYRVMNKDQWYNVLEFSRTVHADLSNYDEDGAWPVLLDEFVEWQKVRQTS
# NRF2 mRNA = assay: qRT-PCR of NRF2 mRNA in THLE2 cells; format: cell-based; conditions: THLE2, 10 µM
# From the text: Total RNA in treated cells was isolated with the RNeasy Mini Kit (Qiagen, Germantown, MD). RNA was reverse transcribed into complementary DNA (cDNA) using high capacity RNA-to-cDNA kit (Applied Biosystems, Carlsbad, California). […] GAPDH was used as an internal reference. […] Error bars correspond to SD from three independent experiments.
# DCN1 = DCN1 (Homo sapiens, UniProt Q96GG9); assay: Competitive fluorescence polarization (FP) binding assay with probe 46, DCN1; design: Human DCN1 (residues 58–259) were cloned into a pDEST17 plasmid containing an N-terminal His6 tag; made in house; host or cells: Rosetta2 cells (E. coli); conditions: for Ki: competitive FP, probe 46 5 nM, DCN1 50 nM; for times weaker (less potent) than 30 in binding to DCN1: comparator 30; for times less potent than 33 in binding to DCN1: comparator 33; for times less potent than 1 in binding to DCN1: comparator 1
# Description: The FP competitive binding experiments were performed to determine the binding affinities of all synthesized DCN1 inhibitors. […] Serial dilutions of DCN1 or DCN2 protein were mixed with the probe (46) to a final volume of 200 μl in the assay buffer (100 mM phosphate buffer, pH = 6.5, with 0.02% Tween-20 and 2% DMSO). The final probe concentration was 5 nM in both DCN1 and DCN2 assays. Plates were incubated at room temperature for 30 min with gentle shaking for equilibrium.
# The IC50 and Ki values of compounds were determined in competitive binding experiments. Mixtures of compounds in DMSO (4 μl) and of pre-incubated protein/probe complex solution (196 μl) in the assay buffer were added into assay plates that were incubated at room temperature for 30 min with gentle shaking. Final concentrations of DCN1 protein and fluorescent probe (46) were 50 and 5 nM, respectively. […] FP values were measured as described above. IC50 values were determined by nonlinear regression fitting of the competition curves using the dose response inhibition equation (four parameters, variable slopes) included in the Prism/GraphPad software. K i values were calculated using the methods described earlier.
# [1] = thermodynamic from solid
# Description: (§1) The equilibrium aqueous solubility of an individual compound at different pH values was determined with a small-scale shake-flask method in Eppendorf tubes. Compounds were added as powder in excess to Britton-Robinson buffer at pH 2.0 or phosphate buffer at pH 7.4 until heterogeneous suspensions were obtained. Suspensions containing excessive compound powder were sonicated in a water bath for 30 min followed by incubation at room temperature with shaking for 24 h to achieve thermodynamic equilibrium. […] Supernatants obtained were filtered using Millipore MultiScreen filter plates equipped with 0.45 µm membranes. Compound concentrations in the saturated solutions were measured by UV spectroscopy at the maximum absorption wavelengths of each compound that were pre-determined by a spectrum scan.
# [2] = Equilibrium aqueous solubility, small-scale shake-flask method; conditions: for solubility / solubility at 24 h: thermodynamic from solid
# Description: as §1
# [3] = Britton-Robinson buffer, pH 2.02, aqueous buffer
# [4] = phosphate buffer, pH 7.4, aqueous buffer
# DCN1, sequence (Q96GG9 58-259): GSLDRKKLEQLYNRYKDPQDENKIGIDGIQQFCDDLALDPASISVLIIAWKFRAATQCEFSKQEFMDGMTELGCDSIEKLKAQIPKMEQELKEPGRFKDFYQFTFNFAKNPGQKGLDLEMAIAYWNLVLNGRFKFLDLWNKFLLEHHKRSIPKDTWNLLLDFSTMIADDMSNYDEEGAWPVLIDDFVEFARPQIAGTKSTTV
compound,measurement,setting,value
CCC(=O)N[C@H](Cc1nc2ccc(C(C)C)cc2s1)C(=O)N[C@@H](CNC(=O)CCN1CCOCC1)C1CCCCC1 [DI-591DD],binding to DCN3 (in words),DCN3,no appreciable binding
same,binding to DCN4 (in words),DCN4,no appreciable binding
same,binding to DCN5 (in words),DCN5,no appreciable binding
same,mRNA level of NRF2 (in words),NRF2 mRNA,no effect
CC[C@H](C)[C@H](NC(=O)[C@H](CCSC)NC(C)=O)C(=O)N[C@@H](CCCCN)C(=O)N[C@@H](CC(C)C)C(N)=O [compound 9] (Ac-MIKL-NH2),Ki,DCN1,50 µM
CC[C@H](C)[C@H](NC(=O)[C@H](CCSC)NC(C)=O)C(=O)N[C@@H](CCCCN)C(N)=O [compound 10] (Ac-Met-Ile-Lys-NH2),binding to DCN1 (in words),"DCN1; at concentrations up to 1,000 µM",no appreciable binding
same,Ki,DCN1,> 1000 µM
CC[C@H](C)[C@H](NC(=O)[C@H](CCc1ccccc1)NC(C)=O)C(=O)N[C@@H](CCCCN)C(=O)N[C@@H](CC(C)C)C(N)=O [compound 12] (Ac-[hPhe]IKL-NH2),factor by which binding affinity to DCN1 is decreased,"DCN1; homophenylalanine in place of Met1, compared with 9/11",6
CC[C@H](C)[C@H](NC(=O)[C@H](Cc1cccc(C#N)c1)NC(C)=O)C(=O)N[C@@H](CCCCN)C(=O)N[C@@H](CC(C)C)C(N)=O [compound 16] (Ac-[Phe(3-CN)]IKL-NH2),Ki,DCN1,> 1000 µM
CC[C@H](C)[C@H](NC(=O)[C@H](Cc1cccc(C(F)(F)F)c1)NC(C)=O)C(=O)N[C@@H](CCCCN)C(=O)N[C@@H](CC(C)C)C(N)=O [compound 17] (Ac-[Phe(3-CF3)]IKL-NH2),Ki,DCN1,> 1000 µM
"CC[C@H](C)[C@H](NC(=O)[C@H](Cc1cc(F)cc(F)c1)NC(C)=O)C(=O)N[C@@H](CCCCN)C(=O)N[C@@H](CC(C)C)C(N)=O [compound 20] (Ac-[Phe(3,5-F2)]IKL-NH2)",Ki,DCN1,82 ± 9.1 µM
CC[C@H](C)[C@H](NC(=O)[C@H](Cc1c[nH]c2ccccc12)NC(C)=O)C(=O)N[C@@H](CCCCN)C(=O)N[C@@H](CC(C)C)C(N)=O [compound 21] (Ac-WIKL-NH2),Ki,DCN1,82 µM
CC[C@H](C)[C@H](NC(=O)[C@H](Cc1ccc2ccccc2c1)NC(C)=O)C(=O)N[C@@H](CCCCN)C(=O)N[C@@H](CC(C)C)C(N)=O [compound 23] (Ac-[2Nal]IKL-NH2),times more potent than 11 in binding to DCN1,DCN1; comparator 11,11 times
CC[C@H](C)[C@H](NC(=O)[C@H](Cc1nc2ccccc2s1)NC(C)=O)C(=O)N[C@@H](CCCCN)C(=O)N[C@@H](CC(C)C)C(N)=O [compound 24] (Ac-[Ala(benzothiazol-2-yl)]IKL-NH2),solubility,"[1]; pH 2.02, aqueous buffer",1480 µM
same,solubility,"[1]; pH 7.4, aqueous buffer",251 µM
CC[C@H](C)[C@H](NC(=O)[C@H](Cc1nc2cc(Cl)ccc2s1)NC(C)=O)C(=O)N[C@@H](CCCCN)C(=O)N[C@@H](CC(C)C)C(N)=O [compound 25],times less potent than 24 in binding to DCN1,DCN1; comparator 24,17 times
CC[C@H](C)[C@H](NC(=O)[C@H](Cc1nc2ccc(Cl)cc2s1)NC(C)=O)C(=O)N[C@@H](CCCCN)C(=O)N[C@@H](CC(C)C)C(N)=O [compound 26],times more potent than 24 in binding to DCN1,DCN1; comparator 24,4 times
CC[C@H](C)[C@H](NC(=O)[C@H](Cc1nc2ccc(C(C)C)cc2s1)NC(C)=O)C(=O)N[C@@H](CCCCN)C(=O)N[C@@H](CC(C)C)C(N)=O [compound 27] (Ac-[Ala(6-iPr-benzothiazol-2-yl)]IKL-NH2),aqueous solubility (in words),[2],poor
same,solubility,"[2]; pH 2.02, aqueous buffer",227 µM
same,solubility,"[2]; pH 7.4, aqueous buffer",31 µM
same,times more potent than 9 in binding to DCN1,DCN1; comparator tetrapeptide 9,"> 10,000 times"
same,Ki,DCN1,0.0047 ± 0.0014 µM
CC[C@H](C)[C@H](NC(=O)[C@H](Cc1nc2ccc(C(C)C)cc2s1)NC(C)=O)C(=O)N[C@@H](CCCCN)C(N)=O [compound 28],solubility,"[2]; pH 2.02, aqueous buffer",> 20000 µM
same,solubility,"[2]; pH 7.4, aqueous buffer",7470 µM
same,times less potent than 27 in binding to DCN1,DCN1; comparator 27,37 times
same,Ki,DCN1,0.174 ± 0.023 µM
CC[C@H](C)[C@H](NC(=O)[C@H](Cc1nc2ccc(C(C)C)cc2s1)NC(C)=O)C(N)=O [compound 29],solubility at 24 h,[2]; [3],1050 µM
same,solubility at 24 h,[2]; [4],1280 µM
same,Ki,DCN1,0.292 µM
CC[C@H](C)[C@@H](CN)NC(=O)[C@H](Cc1nc2ccc(C(C)C)cc2s1)NC(C)=O [compound 30],solubility at 24 h,"[2]; Britton-Robinson buffer, pH 2, aqueous buffer",> 20000 µM
same,solubility at 24 h,[2]; [3],> 20000 µM
same,solubility at 24 h,[2]; [4],> 20000 µM
same,Ki,DCN1,0.066 µM and 0.0664 µM
CC[C@H](C)[C@@H](CN)NC(=O)[C@H](Cc1nc2ccc(C(C)C)cc2s1)NC=O [compound 31],times weaker (less potent) than 30 in binding to DCN1,DCN1,34 times
same,Ki,DCN1,2.24 ± 0.369 µM
CC[C@H](C)[C@@H](CN)NC(=O)[C@@H](N)Cc1nc2ccc(C(C)C)cc2s1 [compound 32],times weaker (less potent) than 30 in binding to DCN1,DCN1,> 1000 times
same,Ki,DCN1,67 ± 8.3 µM
CCC(=O)N[C@@H](Cc1nc2ccc(C(C)C)cc2s1)C(=O)N[C@H](CN)[C@@H](C)CC [compound 33],Ki,DCN1,0.019 µM
CC[C@H](C)[C@@H](CN)NC(=O)[C@H](Cc1nc2ccc(C(C)C)cc2s1)NC(=O)C(C)C [compound 34],Ki,DCN1,0.061 µM
CCCC(=O)N[C@@H](Cc1nc2ccc(C(C)C)cc2s1)C(=O)N[C@H](CN)[C@@H](C)CC [compound 35],Ki,DCN1,0.27 ± 0.034 µM
CC[C@H](C)[C@@H](CN)NC(=O)[C@H](Cc1nc2ccc(C(C)C)cc2s1)NC(=O)NC [compound 36],Ki,DCN1,0.149 ± 0.028 µM
CCC(=O)N[C@@H](Cc1nc2ccc(C(C)C)cc2s1)C(=O)NCCN [compound 37],times less potent than 33 in binding to DCN1,DCN1,> 1000 times
same,Ki,DCN1,32 ± 4.2 µM
CCC(=O)N[C@@H](Cc1nc2ccc(C(C)C)cc2s1)C(=O)N[C@@H](C)CN [compound 38],times less potent than 33 in binding to DCN1,DCN1,> 400 times
same,Ki,DCN1,7.6 ± 0.38 µM
CCC(=O)N[C@@H](Cc1nc2ccc(C(C)C)cc2s1)C(=O)N[C@H](CN)Cc1ccccc1 [compound 39],Ki,DCN1,0.079 µM
CCC(=O)N[C@@H](Cc1nc2ccc(C(C)C)cc2s1)C(=O)N[C@H](CN)C1CCCCC1 [compound 40],aqueous solubility (in words),[2],good
same,solubility at 24 h,[2]; [3],4750 µM
same,solubility at 24 h,[2]; [4],1910 µM
same,Ki,DCN1,0.013 µM
CCC(=O)N[C@@H](Cc1nc2ccc(C(C)C)cc2s1)C(=O)N[C@H](CN(C)C)C1CCCCC1 [compound 41],Ki,DCN1,0.017 µM
CCC(=O)N[C@@H](Cc1nc2ccc(C(C)C)cc2s1)C(=O)N[C@H](CN1CCOCC1)C1CCCCC1 [compound 42],Ki,DCN1,0.044 µM
CCC(=O)N[C@@H](Cc1nc2ccc(C(C)C)cc2s1)C(=O)N[C@H](CNC(=O)CN1CCOCC1)C1CCCCC1 [compound 43],Ki,DCN1,0.019 µM and 0.0185 µM
Ac-MIKLFSLK-NH2 [compound 5],times less potent than 1 in binding to DCN1,DCN1,2–3 times
Ac-MIKLFSLKQ-NH2 [compound 4],times less potent than 1 in binding to DCN1,DCN1,2–3 times
Ac-MIKLFSLKQQ-NH2 [compound 3],times less potent than 1 in binding to DCN1,DCN1,2–3 times
